Measurements taken from US11414406B2, “Antagonists of the muscarinic acetylcholine receptor M4” (Vanderbilt University, priority 2018, dated 2022).
Read-outs that look alike come from different tables or passages of the source.

Biological target: T1, Human M4 (Homo sapiens, UniProt P08173)
T1 construct: expressed in transfected cells
T1 sequence (P08173 1-479): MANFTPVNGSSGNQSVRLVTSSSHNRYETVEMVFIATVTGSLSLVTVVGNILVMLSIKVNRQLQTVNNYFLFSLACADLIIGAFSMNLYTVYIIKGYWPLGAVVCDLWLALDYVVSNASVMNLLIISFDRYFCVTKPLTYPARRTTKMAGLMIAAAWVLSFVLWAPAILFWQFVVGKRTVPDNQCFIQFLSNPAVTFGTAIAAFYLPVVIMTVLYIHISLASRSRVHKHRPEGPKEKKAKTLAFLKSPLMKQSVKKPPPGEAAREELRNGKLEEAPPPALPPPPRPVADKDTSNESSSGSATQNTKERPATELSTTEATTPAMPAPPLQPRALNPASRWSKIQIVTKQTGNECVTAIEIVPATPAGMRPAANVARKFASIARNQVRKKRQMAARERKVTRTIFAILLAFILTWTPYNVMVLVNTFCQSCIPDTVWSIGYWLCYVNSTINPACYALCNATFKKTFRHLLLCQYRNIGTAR
Test: mAChR M4 cell-based functional assay (calcium flux, decrease of EC80 acetylcholine response)
Details: for IC50: decrease of response to EC80 acetylcholine
Experimental: Human M4 cDNA, along with the chimeric G protein Gqi5, were transfected into Chinese hamster ovary (CHO-K1) cells purchased from the American Type Culture Collection using Lipofectamine2000. M4/Gqi5/CHO cells were grown in Ham's F-12 medium containing 10% heat-inactivated fetal bovine serum (FBS), 20 mM HEPES, 500 μg/mL G418 sulfate, and 200 μg/mL Hygromycin B.
For high throughput measurement of agonist-evoked increases in intracellular calcium, CHO-K1 cells stably expressing muscarinic receptors were plated in growth medium lacking G418 and hygromycin at 15,000 cells/20 μL/well in Greiner 384-well black-walled, tissue culture (TC)-treated, clear-bottom plates (VWR). Cells were incubated overnight at 37° C. and 5% CO2. The next day, cells were washed using an ELX 405 (BioTek) with assay buffer; the final volume was then aspirated to 20 μL. Next, 20 μL of a 2.3 μM stock of Fluo-4/acetoxymethyl ester (Invitrogen, Carlsbad, Calif.), prepared as a 2.3 mM stock in DMSO and mixed in a 1:1 ratio with 10% (w/v) Pluronic F-127 and diluted in assay buffer, was added to the wells and the cell plates were incubated for 50 min at 37° C. and 5% CO2. Dye was removed by washing with the ELX 405 and the final volume was aspirated to 20 μL. Compound master plates were formatted in a 10 point concentration-response curve (CRC) format (1:3 dilutions) in 100% DMSO with a starting concentration of 10 or 1 mM using a BRAVO liquid handler (Agilent). Test compound CRCs were then transferred to daughter plates (240 nL) using the Echo acoustic plate reformatter (Labcyte, Sunnyvale, Calif.) and then diluted into assay buffer (40 μL) to a 2× stock using a Thermo Fisher Combi (Thermo Fisher Scientific, Waltham, Mass.).
Calcium flux was measured using the Functional Drug Screening System (FDSS) 6000 or 7000 (Hamamatsu Corporation, Tokyo, Japan) as an increase in the fluorescent static ratio. Compounds were applied to cells (20 μL, 2×) using the automated system of the FDSS at 2 seconds into the protocol and the data were collected at 1 Hz. At 143 s, 10 μL of an EC20 concentration of the muscarinic receptor agonist acetylcholine was added (5×), followed by the addition of 12 μL of an EC80 concentration of acetylcholine at the 268 s time point (5×). Agonist activity was analyzed as a concentration-dependent increase in calcium mobilization upon compound addition. Positive allosteric modulator activity was analyzed as a concentration-dependent increase in the EC20 acetylcholine response. Antagonist activity was analyzed as a concentration-dependent decrease in the EC80 acetylcholine response; for the purposes of the tables herein, an IC50 (inhibitory concentration 50) was calculated as a concentration-dependent decrease of the response elicited by an EC80 concentration of acetylcholine. Concentration-response curves were generated using a four-parameter logistical equation in XLFit curve fitting software (HMS, Bridgewater, N.J.) for Excel (Microsoft, Redmond, Wash.) or Prism (GraphPad Software, Inc., San Diego, Calif.) or the Dotmatics software platform (Dotmatics, Bishop's Stortford, UK).
Compounds were synthesized as described above. Activity (IC50 and Emin) was determined in the inAChR M4 cell-based functional assay as described above and the data are shown in Table 2. The compound numbers correspond to the compound numbers used in Examples 1 and 2 and Tables 1 and 2.

[1] = CHO-K1, read-out: Emin (% ACh maximum at 30 μM)
[2] = M4/Gqi5/CHO-K1 cells, % ACh maximum at 30 μM, read-out: Emin (% ACh maximum at 30 μM)

Cc1nn(C)cc1-c1ccc(N[C@H]2[C@@H]3CN(CCC(C)(C)C)C[C@@H]32)nn1 [Compound 1, (1R,5S,6s)-3-(3,3-dimethylbutyl)-N-[6-(1,3-dimethylpyrazol-4-yl)pyridazin-3-yl]-3-azabicyclo[3.1.0]hexan-6-amine]
remaining activity at 30 µM [1]: 4.8% | IC50 (M4/Gqi5/CHO-K1 cells): 280 nM

Cc1nn(C)cc1-c1ccc(N[C@H]2[C@@H]3CN(CC4CC5C=CC4C5)C[C@@H]32)nn1 (stereo partly drawn) [Compound 2, (1R,5S,6s)-3-(5-bicyclo[2.2.1]hept-2-enylmethyl)-N-[6-(1,3-dimethylpyrazol-4-yl)pyridazin-3-yl]-3-azabicyclo[3.1.0]hexan-6-amine]
remaining activity at 30 µM [2]: 5% | IC50 (M4/Gqi5/CHO-K1 cells): 100 nM

Cc1nn(C)cc1-c1ccc(N[C@H]2[C@@H]3CN(CC(C)C(C)(C)C)C[C@@H]32)nn1 (stereo partly drawn) [Compound 3, (1R,5S,6s)-N-[6-(1,3-dimethylpyrazol-4-yl)pyridazin-3-yl]-3-(2,3,3-trimethylbutyl)-3-azabicyclo[3.1.0]hexan-6-amme]
remaining activity at 30 µM [2]: 24%

Cc1nn(C)cc1-c1ccc(CN[C@H]2[C@@H]3CN(CCC(C)(C)C)C[C@@H]32)nn1 [Compound 4, (1R,5S,6s)-N-((6-(1,3-dimethyl-1H-pyrazol-4-yl)pyridazin-3-yl)methyl)-3-(3,3-dimethylbutyl)-3-azabicyclo[3.1.0]hexan-6-amine]
remaining activity at 30 µM [1]: 36.7%

CC(C)(C)CCN1C[C@@H]2[C@H](C1)[C@H]2NCc1ccc(-c2cc(F)ccc2Cl)nn1 [Compound 5, (1R,5S,6s)-N-((6-(2-chloro-5-fluoro-phenyl)pyridazin-3-yl)methyl)-3-(3,3-dimethylbutyl)-3-azabicyclo[3.1.0]hexan-6-amine]
remaining activity at 30 µM [2]: 20.4%

Fc1ccc(Cl)c(-c2ccc(CN[C@H]3[C@@H]4CN(CC5CCCCC5)C[C@@H]43)nn2)c1 [Compound 6, (1R,5S,6s)-N-((6-(2-chloro-5-fluoro-phenyl)pyridazin-3-yl)methyl)-3-(cyclohexylmethyl)-3-azabicyclo[3.1.0]hexan-6-amine]
remaining activity at 30 µM [2]: 17.8%

Cc1nn(C)cc1-c1ccc(CN[C@H]2[C@@H]3CN(CC4CCCCC4)C[C@@H]32)nn1 [Compound 7, (1R,5S,6s)-3-(cyclohexylmethyl)-N-((6-(1,3-dimethylpyrazol-4-yl)pyridazin-3-yl)methyl)-3-azabicyclo[3.1.0]hexan-6-amine]
remaining activity at 30 µM [2]: 32.5%

Fc1ccccc1-c1ccc(N[C@H]2[C@@H]3CN(CC4CCOCC4)C[C@@H]32)nn1 [Compound 8, (1R,5S,6s)-N-[6-(2-fluorophenyl)pyridazin-3-yl]-3-(tetrahydropyran-4-ylmethyl)-3-azabicyclo[3.1.0]hexan-6-amine]
remaining activity at 30 µM [2]: 38%

Fc1cccc(-c2ccc(N[C@H]3[C@@H]4CN(CC5CCOCC5)C[C@@H]43)nn2)c1 [Compound 9, (1R,5S,6s)-N-[6-(3-fluorophenyl)pyridazin-3-yl]-3-(tetrahydropyran-4-ylmethyl)-3-azabicyclo[3.1.0]hexan-6-amine]
remaining activity at 30 µM [2]: 25%

Fc1ccc(-c2ccc(N[C@H]3[C@@H]4CN(CC5CCOCC5)C[C@@H]43)nn2)cc1 [Compound 10, (1R,5S,6s)-N-[6-(4-fluorophenyl)pyridazin-3-yl]-3-(tetrahydropyran-4-ylmethyl)-3-azabicyclo[3.1.0]hexan-6-amine]
remaining activity at 30 µM [2]: 37%

Clc1ccccc1-c1ccc(N[C@H]2[C@@H]3CN(CC4CCOCC4)C[C@@H]32)nn1 [Compound 11, (1S,5R,6s)-N-[6-(2-chlorophenyl)pyridazin-3-yl]-3-(tetrahydropyran-4-ylmethyl)-3-azabicyclo[3.1.0]hexan-6-amine]
remaining activity at 30 µM [2]: 11% | IC50 (M4/Gqi5/CHO-K1 cells): 2960 nM

Fc1ccc(Cl)c(-c2ccc(N[C@H]3[C@@H]4CN(CC5CCOCC5)C[C@@H]43)nn2)c1 [Compound 12, (1R,5S,6s)-N-[6-(2-chloro-5-fluoro-phenyl)pyridazin-3-yl]-3-(tetrahydropyran-4-ylmethyl)-3-azabicyclo[3.1.0]hexan-6-amine]
remaining activity at 30 µM [2]: 8% | IC50 (M4/Gqi5/CHO-K1 cells): 1110 nM

Fc1cccc(-c2ccc(N[C@H]3[C@@H]4CN(CC5CCOCC5)C[C@@H]43)nn2)c1Cl [Compound 13, (1R,5S,6s)-N-[6-(2-chloro-3-fluoro-phenyl)pyridazin-3-yl]-3-(tetrahydropyran-4-ylmethyl)-3-azabicyclo[3.1.0]hexan-6-amine]
remaining activity at 30 µM [2]: 8% | IC50 (M4/Gqi5/CHO-K1 cells): 1850 nM

Fc1ccc(-c2ccc(N[C@H]3[C@@H]4CN(CC5CCOCC5)C[C@@H]43)nn2)c(Cl)c1 [Compound 14, (1R,5S,6s)-N-[6-(2-chloro-4-fluoro-phenyl)pyridazin-3-yl]-3-(tetrahydropyran-4-ylmethyl)-3-azabicyclo[3.1.0]hexan-6-amine]
remaining activity at 30 µM [2]: 12%

Fc1cccc(Cl)c1-c1ccc(N[C@H]2[C@@H]3CN(CC4CCOCC4)C[C@@H]32)nn1 [Compound 15, (1R,5S,6s)-N-[6-(2-chloro-6-fluoro-phenyl)pyridazin-3-yl]-3-(tetrahydropyran-4-ylmethyl)-3-azabicyclo[3.1.0]hexan-6-amine]
remaining activity at 30 µM [2]: 14% | IC50 (M4/Gqi5/CHO-K1 cells): 3180 nM

Fc1ccc(F)c(-c2ccc(N[C@H]3[C@@H]4CN(CC5CCOCC5)C[C@@H]43)nn2)c1 [Compound 16, (1R,5S,6s)-N-[6-(2,5-difluorophenyl)pyridazin-3-yl]-3-(tetrahydropyran-4-ylmethyl)-3-azabicyclo[3.1.0]hexan-6-amine]
remaining activity at 30 µM [2]: 28%

c1cnc2ccc(-c3ccc(N[C@H]4[C@@H]5CN(CC6CCOCC6)C[C@@H]54)nn3)cc2c1 [Compound 17, (1R,5S,6s)-N-[6-(6-quinolyl)pyridazin-3-yl]-3-(tetrahydropyran-4-ylmethyl)-3-azabicyclo[3.1.0]hexan-6-amine]
remaining activity at 30 µM [2]: 13% | IC50 (M4/Gqi5/CHO-K1 cells): 3760 nM

Cn1cc2cc(-c3ccc(N[C@H]4[C@@H]5CN(CC6CCOCC6)C[C@@H]54)nn3)ccc2n1 [Compound 18, (1R,5S,6s)-N-[6-(2-methylindazol-5-yl)pyridazin-3-yl]-3-(tetrahydropyran-4-ylmethyl)-3-azabicyclo[3.1.0]hexan-6-amine]
remaining activity at 30 µM [2]: 27%

CC(=O)Nc1ccc(-c2ccc(N[C@H]3[C@@H]4CN(CC5CCOCC5)C[C@@H]43)nn2)cc1 [Compound 19, N-[4-[6-[[(1R,5S,6s)-3-(tetrahydropyran-4-ylmethyl)-3-azabicyclo[3.1.0]hexan-6-yl]amino]pyridazin-3-yl]phenyl]acetamide]
remaining activity at 30 µM [2]: 39%

FC(F)(F)c1ccc(-c2ccc(N[C@H]3[C@@H]4CN(CC5CCOCC5)C[C@@H]43)nn2)cn1 [Compound 20, (1R,5S,6s)-3-(tetrahydropyran-4-ylmethyl)-N-[6-[6-(trifluoromethyl)-3-pyridyl]pyridazin-3-yl]-3-azabicyclo[3.1.0]hexan-6-amine]
remaining activity at 30 µM [2]: 48%
